US20070122802A1, “Methods of diagnosing and treating diabetes and insulin resistance” (priority 2002, published 2007)

How the values were obtained:
Type in all cases: in vivo, human
Endothelin A receptor = experiment: Gene expression profiling (Affymetrix chips) of muscle from diabetics before/after troglitazone: Endothelin A receptor transcripts; details: Endothelin A receptor mRNA, Clamp sample
From the text: (§1) The molecular mechanism by which thiazolidinediones (TZDs) cause an increase in peripheral insulin sensitivity was studied. Genes in muscle or fat whose expression is altered by TZDs may lie on a pathway leading from TZD treatment to increased insulin sensitivity. Modulators of such genes can elicit the same effect as TZD treatment. Moreover, such modulators can lack some of the side effects of TZD. The majority of glucose disposal occurs in muscle. For this reason, gene expression profiling in human muscle from diabetics treated with troglitazone was used to identify genes important for TZD action and therefore treatment of diabetes and insulin resistance. […]
(§2) In the second study, samples were obtained from lean, obese, and diabetic individuals before and after a hyperinsulinemic euglycemic clamp. […] The gene expression profile for each individual was determined by hybridization of cRNA to custom synthesized Affymetrix chips.
(§3) Gene expression profile differences were calculated as follows. […] The raw data was analyzed by a statistical test to remove ‘outliers’. The mean ‘average difference score’ was then calculated from the average difference scores for all individuals in a particular treatment group. Genes were determined to be changed in three different comparisons by calculating the Students t test statistic between two conditions and selecting those with t less than or equal to 0.05. […]

PRK1 = experiment: Gene expression profiling (Affymetrix chips) of muscle from diabetics before/after troglitazone: PRK1 transcripts; details: PRK1 mRNA, Basal sample
From the text: as §1, §2, §3

Ceramidase = experiment: Gene expression profiling (Affymetrix chips) of muscle from diabetics before/after troglitazone: ceramidase transcripts; details: Ceramidase mRNA, Clamp sample
From the text: as §1, §2, §3

HIOMT = experiment: Gene expression profiling (Affymetrix chips) of muscle from diabetics before/after troglitazone: HIOMT transcripts; details: HIOMT mRNA, Basal sample
From the text: as §1, §2, §3

[1] = 3 months of Troglitazone treatment

Cc1c(C)c2c(c(C)c1O)CCC(C)(COc1ccc(CC3SC(=O)NC3=O)cc1)O2 (centres unmarked) [Troglitazone, troglitazone]
Fold Change (diabetic post tro/diabetic pre tro) (Endothelin A receptor; [1]): 0.52 | Diabetic Post-Trog Mean Expr (Endothelin A receptor; diabetic patients after 3 months of Troglitazone treatment (pre-Trog mean 194)): 102 | Fold Change (diabetic post tro/diabetic pre tro) (PRK1; [1]): 0.54 | Diabetic Post-Trog Mean Expr (PRK1; diabetic patients after 3 months of Troglitazone treatment (pre-Trog mean 1634)): 874 | Fold Change (diabetic post tro/diabetic pre tro) (Ceramidase; [1]): 0.68 | Diabetic Post-Trog Mean Exp (Ceramidase; diabetic patients after 3 months of Troglitazone treatment (pre-Trog mean 630)): 427 | Fold Change (diabetic post tro/diabetic pre tro) (HIOMT; [1]): 1.51 | Diabetic Post-Trog Mean Expr (HIOMT; diabetic patients after 3 months of Troglitazone treatment (pre-Trog mean 518)): 781
